Test results as given in patent publication US4957923A, “Diuretic or antihypertensive composition” (Fujisawa Pharmaceutical Co., Ltd., priority 1988, dated 1990).

Key:
[1] = system: DOCA hypertensive rats; experiment: Antihypertension action (DOCA hypertensive rats); assay type: in vivo, rat (Wistar)
Procedure: Male Wistar rats, 10 weeks old, were subjected to left nephrectomy and 2 to 4 days after operation, deoxycorticosterone acetate was administered subcutaneously in a dose of 30 mg/ml/kg twice a week. The animals were given 1% saline for drinking water and the individuals showing a mean blood pressure of ≥150 mmHg at 15 weeks of age were submitted to the experiment. After catheterization, saline for drinking water was replaced with tap water. At the beginning of the experiment, the test rats had mean blood pressures from 152 to 204 mmHg, heart rates from 354 to 462 beats/min. and body weights from 232 to 318 g. 3~5 Animals per group were used.
3 Or 4 days before the beginning of the experiment, one end of a catheter for blood pressure measurement was passed from the femoral artery to the abdominal aorta of each rat and the other end was passed beneath the skin and fixed in exposed position in the dorsocervical region. The drug was orally administered once a day for 5 consecutive days. The rats had been deprived of food for about 3 hours before drug administration. The blood pressure was measured before administration and 5 hours after administration of days 1, 3 and 5. At each blood pressure measurement, the mean blood pressure was observed via a pressure transducer connected to the dorsocervical end of the catheter for blood pressure measurement and the stabilized mean blood pressure was recorded.
Drug was suspended and diluted using a 0.5% solution of methylcellulose and 5ml/kg of the suspension was orally administered.

[2] = system: healthy male adult volunteers; experiment: Antihypertensive action (human); assay type: in vivo; details: mean ± S.D.
Procedure: To 6 healthy male adult volunteers, 150 mg of compound A (one capsule each of capsules shown in Examples 1 and 2 below) was orally administered twice a day at a 12-hour interval from 30 minutes after breakfast to 2 hours after supper for 8 consecutive days (except on day 8 when the administration was made only once in the morning) and the systolic blood pressure in standing position was measured.

[3] = system: healthy male adult volunteers; experiment: Diuretic action (human); assay type: in vivo; details: mean ± S.D.
Procedure: To healthy male adult volunteers, 300 mg (the capsule of Example 3 below ×1) (6 men) or 600 mg (the capsule of Example 3 below ×2) (6 men) of compound A was orally […] administered in fasting condition, or 600 mg (the capsule of Example 3 below×2) (6 men) of compound A was orally administered 30 minutes after breakfast. In each group, the 24-hr urine volume before administration and that on day 1 after administration were respectively determined.

[4] = 3.2 mg/kg p.o. once a day, Day 1 before administration (baseline)
[5] = 3.2 mg/kg p.o. once a day, Day 3 after 5 hr
[6] = 3.2 mg/kg p.o. once a day, Day 3 before administration
[7] = 3.2 mg/kg p.o. once a day, Day 5 after 5 hr
[8] = 3.2 mg/kg p.o. once a day, Day 5 before administration
[9] = 10 mg/kg p.o. once a day, Day 1 after 5 hr
[10] = 10 mg/kg p.o. once a day, Day 1 before administration (baseline)
[11] = 10 mg/kg p.o. once a day, Day 3 after 5 hr
[12] = 10 mg/kg p.o. once a day, Day 3 before administration
[13] = 10 mg/kg p.o. once a day, Day 5 after 5 hr
[14] = 10 mg/kg p.o. once a day, Day 5 before administration
[15] = 32 mg/kg p.o. once a day, Day 1 after 5 hr
[16] = 32 mg/kg p.o. once a day, Day 1 before administration (baseline)
[17] = 32 mg/kg p.o. once a day, Day 3 after 5 hr
[18] = 32 mg/kg p.o. once a day, Day 3 before administration
[19] = 32 mg/kg p.o. once a day, Day 5 after 5 hr
[20] = 32 mg/kg p.o. once a day, Day 5 before administration

With O=C(O)Cn1c(=O)n(Cc2ccc(Br)cc2F)c(=O)c2ccc(Cl)cc21 [Compound A, 2-[7-Chloro-3-(4-bromo-2-fluorobenzyl)-1,2,3,4-tetrahydro-2,4-dioxoquinazolin-1-yl]acetic acid] the Mean blood pressure ([1]; 3.2 mg/kg p.o. once a day, Day 1 after 5 hr) was 148 mm Hg, the Mean blood pressure [1, 4] was 175 mm Hg and the “Percentage of change (mean blood pressure)” value (“Percentage of change” below) [1, 4] was 0.0%. For the same compound, the Mean blood pressure [1, 5] was 142 mm Hg, the “Percentage of change” value [1, 5] was -18.6% and the Mean blood pressure [1, 6] was 153 mm Hg. The “Percentage of change” value [1, 6] was -13.4%, the Mean blood pressure [1, 7] was 131 mm Hg and the “Percentage of change” value [1, 7] was -24.9%. The Mean blood pressure [1, 8] was 139 mm Hg, the “Percentage of change” value [1, 8] was -21.0% and the Mean blood pressure [1, 9] was 145 mm Hg. For the same compound, the “Percentage of change” value [1, 9] was -13.0%, the Mean blood pressure [1, 10] was 166 mm Hg and the “Percentage of change” value [1, 10] was 0.0%. The Mean blood pressure [1, 11] was 127 mm Hg, the “Percentage of change” value [1, 11] was -23.1% and the Mean blood pressure [1, 12] was 137 mm Hg. For the same compound, the “Percentage of change” value [1, 12] was -17.2%, the Mean blood pressure [1, 13] was 118 mm Hg and the “Percentage of change” value [1, 13] was -29.1%. The Mean blood pressure [1, 14] was 127 mm Hg, the “Percentage of change” value [1, 14] was -23.2% and the Mean blood pressure [1, 15] was 133 mm Hg. The “Percentage of change” value [1, 15] was -20.1%, the Mean blood pressure [1, 16] was 168 mm Hg and the “Percentage of change” value [1, 16] was 0.0%. For the same compound, the Mean blood pressure [1, 17] was 132 mm Hg, the “Percentage of change” value [1, 17] was -20.1% and the Mean blood pressure [1, 18] was 133 mm Hg. For the same compound, the “Percentage of change” value [1, 18] was -19.2%, the Mean blood pressure [1, 19] was 116 mm Hg and the “Percentage of change” value [1, 19] was -30.2%. For the same compound, the Mean blood pressure [1, 20] was 117 mm Hg, the “Percentage of change” value [1, 20] was -29.5% and the “Systolic blood pressure in standing position” value (from here on “Systolic blood pressure”) ([2]; 150 mg p.o. twice a day for 8 days, Day 9 immediately before breakfast) was 113 ± 3 mmHg. The “Systolic blood pressure” value ([2]; 150 mg p.o. twice a day for 8 days, Day 10 immediately before breakfast) was 117 ± 6 mmHg, the “Systolic blood pressure” value ([2]; 150 mg p.o. twice a day, Day 1 immediately before breakfast (before first dose, baseline)) was 121 ± 8 mmHg and the “Systolic blood pressure” value ([2]; 150 mg p.o. twice a day, Day 2 immediately before breakfast) was 113 ± 6 mmHg. For the same compound, the “Systolic blood pressure” value ([2]; 150 mg p.o. twice a day, Day 3 immediately before breakfast) was 114 ± 7 mmHg, the “Systolic blood pressure” value ([2]; 150 mg p.o. twice a day, Day 4 immediately before breakfast) was 114 ± 5 mmHg and the “Systolic blood pressure” value ([2]; 150 mg p.o. twice a day, Day 5 immediately before breakfast) was 110 ± 8 mmHg. For the same compound, the “Systolic blood pressure” value ([2]; 150 mg p.o. twice a day, Day 6 immediately before breakfast) was 114 ± 6 mmHg, the “Systolic blood pressure” value ([2]; 150 mg p.o. twice a day, Day 7 immediately before breakfast) was 116 ± 8 mmHg and the “Systolic blood pressure” value ([2]; 150 mg p.o. twice a day, Day 8 immediately before breakfast) was 117 ± 5 mmHg. For the same compound, the Urine volume ([3]; 300 mg p.o., without breakfast, 0-2 hr) was 95 ± 57 mL, the Urine volume ([3]; 300 mg p.o., without breakfast, 2-4 hr) was 136 ± 60 mL and the Urine volume ([3]; 300 mg p.o., without breakfast, 4-8 hr) was 328 ± 55 mL. For the same compound, the Urine volume ([3]; 300 mg p.o., without breakfast, 8-12 hr) was 340 ± 79 mL, the Urine volume ([3]; 300 mg p.o., without breakfast, 12-24 hr) was 609 ± 147 mL and the Urine volume ([3]; 300 mg p.o., without breakfast, -24-0 hr (before administration, baseline)) was 902 ± 256 mL. For the same compound, the Urine volume ([3]; 300 mg p.o., without breakfast, total 0-24 hr) was 1508 ± 274 mL, the Urine volume ([3]; 600 mg p.o., 30 min after breakfast, 0-2 hr) was 130 ± 46 mL and the Urine volume ([3]; 600 mg p.o., 30 min after breakfast, 2-4 hr) was 151 ± 19 mL. It also gave a Urine volume ([3]; 600 mg p.o., 30 min after breakfast, 4-8 hr) of 414 ± 161 mL, a Urine volume ([3]; 600 mg p.o., 30 min after breakfast, 8-12 hr) of 507 ± 139 mL and a Urine volume ([3]; 600 mg p.o., 30 min after breakfast, 12-24 hr) of 829 ± 240 mL. For the same compound, the Urine volume ([3]; 600 mg p.o., 30 min after breakfast, -24-0 hr (before administration, baseline)) was 1234 ± 212 mL, the Urine volume ([3]; 600 mg p.o., 30 min after breakfast, total 0-24 hr) was 2031 ± 362 mL and the Urine volume ([3]; 600 mg p.o., without breakfast, 0-2 hr) was 64 ± 24 mL. It also gave a Urine volume ([3]; 600 mg p.o., without breakfast, 2-4 hr) of 82 ± 32 mL, a Urine volume ([3]; 600 mg p.o., without breakfast, 4-8 hr) of 292 ± 50 mL and a Urine volume ([3]; 600 mg p.o., without breakfast, 8-12 hr) of 393 ± 141 mL. It also gave a Urine volume ([3]; 600 mg p.o., without breakfast, 12-24 hr) of 863 ± 253 mL, a Urine volume ([3]; 600 mg p.o., without breakfast, -24-0 hr (before administration, baseline)) of 982 ± 293 mL and a Urine volume ([3]; 600 mg p.o., without breakfast, total 0-24 hr) of 1693 ± 368 mL.
